{"source": "a melting point compilation (Tetko et al.; mined from patent text by program, amines drawn as free bases though some values may be those of a salt)", "data": [{"units": {"melting point": "°C"}, "values": [{"smiles": "COc1ccc2c(c1)Cc1ccccc1C(=O)C2", "melting point": "105 to 106"}, {"smiles": "C=CCOC(=O)c1c(C)nc2c(cnn2CCC(C)CC)c1N", "note": "(stereo not drawn)", "melting point": "85 to 86"}, {"smiles": "O=C(CBr)NCCC(=O)ON1C(=O)CCC1=O", "melting point": "107 to 110"}, {"smiles": "COc1cc2c(cc1Nc1ncc(Cl)c(N[C@H]3[C@@H](C(N)=O)[C@@H]4C=C[C@H]3C4)n1)CCN(CC(=O)N1CCN(C)CC1)CC2", "melting point": 190}, {"smiles": "C=CCOC(=O)c1cccc(NC(=O)NC(CC(=O)OC(C)(C)C)C(=O)Nc2ccccc2C(=O)c2ccc(OC)cc2)c1", "note": "(stereo not drawn)", "melting point": "190 to 191"}, {"smiles": "CC(C)(C)c1ccc(Oc2nc(Nc3cccc(C(=O)O)c3)nc(Oc3ccccc3)n2)cc1", "melting point": "245 to 247"}, {"smiles": "O=C(OCc1ccccc1)c1cc2cc(OCc3ccccc3)ccc2cc1OCc1ccccc1", "melting point": "99 to 102"}, {"smiles": "C=CCNc1c(C(C)=O)cnc2cn[nH]c12", "melting point": "211 to 213"}, {"smiles": "O=C(O)[C@H]1C[C@@H](CP(=O)(O)O)c2ccccc2N1", "note": "(relative stereo)", "melting point": "171 to 173"}, {"smiles": "O=C1Nc2ccccc2CCC1Cl", "note": "(stereo not drawn)", "melting point": "163 to 167"}, {"smiles": "CC(O)COc1cccc2oc(C(N)=O)cc(=O)c12", "note": "(stereo not drawn)", "melting point": "229 to 231"}, {"smiles": "Cc1ccc(C(N)=S)cc1C", "melting point": "120 to 125"}, {"smiles": "Cn1c(=O)c(-c2ccccc2)nc2cc3c(cc21)OC(F)(F)O3", "melting point": 165}, {"smiles": "CCn1c(=O)n(-c2ccc(N3CCn4c3nc3cccnc34)cc2)c2ncccc21", "melting point": "255 to 256"}, {"smiles": "COc1c(Cl)ccnc1CSc1nc2cc(OC(F)F)ccc2[nH]1", "melting point": "94 to 99"}, {"smiles": "CC(C)c1cc2n(Cc3ccccc3)cc(C(=O)O)c(=O)n2n1", "melting point": "180 to 185"}, {"smiles": "COc1ccc2cccc(CCN3C(=O)c4ccccc4C3=O)c2c1", "melting point": 154}, {"smiles": "N#CC(NC(=O)C(F)(F)C(F)(F)F)c1ccc(Cl)cc1", "note": "(stereo not drawn)", "melting point": 118}, {"smiles": "C=CC(=O)N1CCc2cc(OC)c(OC)cc2C12CCC(C(=O)OCC)(C(=O)OCC)CC2C1c2cc(OC)c(OC)cc2CCN1CC", "note": "(stereo not drawn)", "melting point": "150 to 151"}, {"smiles": "COCCOC(=O)C1=C(C)NC(C)=C(C(=O)OCCN2CCN(C(c3ccccc3)c3ccccc3)CC2)C1c1cccc([N+](=O)[O-])c1", "note": "(stereo not drawn)", "melting point": "62 to 66"}, {"smiles": "CC(C)COc1ccc(Br)cc1N(Cc1ccc(N(C)C)cc1)C(=O)C1CCCc2ccccc21", "note": "(stereo not drawn)", "melting point": "176 to 178"}, {"smiles": "Cc1cc(Nc2nc(-c3ccncc3)nc3ccccc23)[nH]n1", "melting point": "286 to 289"}, {"smiles": "CCCn1nc(C(F)F)nc1Cc1ccc(-c2ccccc2-c2nnn[nH]2)nc1", "melting point": "176 to 178"}, {"smiles": "NC(CO)(CO)CCc1ccc(C(=O)CCCCc2ccccc2)cc1", "melting point": "126 to 127"}, {"smiles": "CC(NC(=O)OCc1ccccc1)C(=O)N1CC(=O)NC1(C)C", "note": "(stereo not drawn)", "melting point": "170 to 171"}, {"smiles": "CCOP(=O)(CCN1CCC(N(C)S(=O)(=O)c2ccc(Nc3nccc(Nc4ccc(F)c(F)c4)n3)cc2)CC1)OCC", "melting point": "93 to 96"}, {"smiles": "O=Cc1ccc(CNc2ccccn2)c(Cl)c1", "melting point": "122 to 123"}, {"smiles": "CCNC(=O)C(c1ccccc1)c1ccccc1", "melting point": 87}, {"smiles": "CC(C)(C)n1nnc(Cc2ccc(Br)cc2)n1", "melting point": "69 to 70"}, {"smiles": "Clc1ccccc1-c1cc(-c2ccccc2)c(-c2ccccc2Cl)nn1", "melting point": "176 to 178"}, {"smiles": "C[C@@H](CCOC(N)=O)CN1CCC(c2noc3cc(F)ccc23)CC1", "melting point": "72 to 74"}, {"smiles": "O=C(NCCCO)c1cc(Br)c(Br)[nH]1", "melting point": "160 to 162"}, {"smiles": "COc1ccc(N2CCCN(c3ccnc4sc(C(N)=O)c(N)c34)CC2)cc1", "melting point": "206 to 208"}, {"smiles": "NC(=O)Cc1nc2ccnc(-c3cccc(C(F)(F)F)c3)n2n1", "melting point": "218 to 220"}, {"smiles": "COc1ccc(Cn2nc(-c3cccc(Cl)c3)c3ncccc3c2=O)cn1", "melting point": 145}, {"smiles": "Cn1c2ccc(Cl)cc2c2c(CBr)nn(-c3ccccc3)c(=O)c21", "melting point": "253 to 254"}, {"smiles": "O=c1[nH]c(=S)[nH]cc1CCCc1ccccc1", "melting point": "180 to 182"}, {"smiles": "CN1CCN(C(=O)Oc2ccc([N+](=O)[O-])cc2)CC1", "melting point": "134 to 135"}, {"smiles": "N#Cc1nn(-c2c(Cl)cc(C(F)(F)F)cc2Cl)c(N)c1-c1ccoc1C(F)(F)F", "melting point": "155 to 157"}, {"smiles": "CCCCc1nc(N)c(N)c(=O)[nH]1", "melting point": "160 to 165"}, {"smiles": "CCCCc1cccn2c(=O)c(-c3nnn[nH]3)cnc12", "melting point": "256 to 258"}, {"smiles": "CCN(CC)c1ccc(C2(N(c3ccccc3)c3ccc(NC(C)=O)cc3)OC(=O)c3ccccc32)c(C)c1", "note": "(stereo not drawn)", "melting point": "169 to 171"}, {"smiles": "Cn1c(C(F)(F)F)ccc(-c2c(F)cc(Cl)c3oc(CBr)cc23)c1=O", "melting point": "142 to 144"}, {"smiles": "Nc1ccc(C=Cc2nc3ccccc3nc2C=Cc2ccc(N)cc2)cc1", "melting point": "227 to 228"}, {"smiles": "CCCC(=O)Nc1n[nH]c2cc(-c3ccc(C(C)(C)C)cc3)ccc12", "melting point": 246}, {"smiles": "CCC(C)NCc1nc(-c2ccc(OC)c(OC)c2)c2cc(OC)c(OC)cc2n1", "note": "(stereo not drawn)", "melting point": "118 to 120"}, {"smiles": "COC(=O)CCc1conc1-c1ccc(Cl)c(F)c1", "melting point": "57 to 58"}, {"smiles": "Nc1nc2c(s1)CCN(CC=Cc1c[nH]c3ccccc13)CC2", "melting point": "155 to 160"}, {"smiles": "CCN1C(=O)CN(c2ccccc2)C1=O", "melting point": 142}, {"smiles": "O=C(CCc1ccccc1)Nc1ccc(C(=O)O)c(O)c1", "melting point": "165 to 167"}, {"smiles": "Cc1cc(S(=O)(=O)O)c(NC(=O)Nc2cccc(Br)c2)cc1Cl", "melting point": 275}, {"smiles": "Cc1cc(-n2nc(C(F)F)cc2-c2ccc(S(C)(=O)=O)cc2)ccc1Cl", "melting point": "145 to 146"}, {"smiles": "CC(C)CCCC(C)C1CCC2C3CC=C4CC(I)CCC4(C)C3CCC12C", "note": "(stereo not drawn)", "melting point": 106}, {"smiles": "Cn1nccc1COc1nn2c(-c3ccccc3F)nnc2cc1C1CCC1", "melting point": "184 to 186"}, {"smiles": "COC1=Cc2ccccc2Nc2ccccc21", "melting point": 124}, {"smiles": "Cc1ccnn(-c2cccc(Cl)c2)c1=O", "melting point": "244 to 245"}, {"smiles": "CC(C)=CCOc1ccc(C(=O)C=Cc2ccc(C(F)(F)F)cc2)c(O)c1", "melting point": "122 to 123"}, {"smiles": "NCCc1c[nH]c2ccc(Cc3ccccc3)cc12", "melting point": "150 to 153"}, {"smiles": "CC(C)c1cc(C(=O)Nc2ccc(CCC(=O)O)cc2)oc1C(C)C", "melting point": "139 to 141"}, {"smiles": "CCNc1nc(OC)c(C(=O)NCCN(CC)CC)nc1Cl", "melting point": 142}, {"smiles": "CC(C)NC(=O)NCCc1c2c3c(nc(N)c2nn1C)CCCC3", "melting point": "237 to 238"}, {"smiles": "COc1cccc(CC(=O)O)c1OCCCc1cc(C(C)C)nn1Cc1ccc(Cl)cc1Cl", "melting point": "101 to 102"}, {"smiles": "CCOC(=O)COc1cc(C2COc3c(C)c(C)c(NC(=O)CC(C)(C)C)c(C)c32)ccc1C(C)C", "note": "(stereo not drawn)", "melting point": "149 to 150"}, {"smiles": "NC(=O)C(CC1CCCC1)c1ccc(Cl)c([N+](=O)[O-])c1", "note": "(stereo not drawn)", "melting point": "112 to 114"}, {"smiles": "O=C(c1ccccc1)N1CC(=O)N(CCc2ccccc2)C(=O)C1", "melting point": 102}, {"smiles": "Cc1nn(-c2cc(Oc3ccc(C(=O)O)cc3)c(Cl)cc2F)c(=O)n1C(F)F", "melting point": "184 to 185"}, {"smiles": "O=C1CC[C@H](COC(c2ccccc2)(c2ccccc2)c2ccccc2)N1CCCc1ccccc1", "melting point": 109}, {"smiles": "O=C(Nc1ccc(-c2nc3ccccc3s2)cc1)c1ccccc1", "melting point": "227 to 228"}, {"smiles": "COC(=O)c1coc(-c2ncn3c2CN(C)C(=O)c2c(Cl)cccc2-3)n1", "melting point": "266 to 268"}, {"smiles": "COc1ccc(CNc2nc(-c3ccccc3)c(-c3ccc(=O)n(C(C)C)n3)nc2C(=O)O)cc1", "melting point": "216 to 217"}, {"smiles": "CCC(SC(C)=O)C(=O)NC(C)=O", "note": "(stereo not drawn)", "melting point": "59 to 60"}, {"smiles": "CCOC(=O)c1cnc(CCOC)nc1NCc1ccc(-c2ccccc2-c2nnn[nH]2)cc1", "melting point": "122 to 124"}, {"smiles": "CCCN(C(=O)OC(C)(C)C)C(CC(C)C)C(=O)NCC(=O)Oc1c(Cl)c(Cl)c(Cl)c(Cl)c1Cl", "note": "(stereo not drawn)", "melting point": "151 to 153"}, {"smiles": "OC1CSC(Oc2cncc(-c3ccccc3)c2)C(O)C1O", "note": "(stereo not drawn)", "melting point": 169}, {"smiles": "O=C1NCCN1Cc1ccc2c(Br)cccc2c1", "melting point": "158 to 161"}, {"smiles": "CCCn1c(Cl)nc2ccc(I)cc2c1=O", "melting point": "98 to 100"}, {"smiles": "Cc1cc(N2N=CCNC2=O)cc(Cl)c1C(C#N)c1cnc(Cl)s1", "note": "(stereo not drawn)", "melting point": "238 to 239"}, {"smiles": "C=CCOc1nc2cccc(C(=O)OC)c2n1Cc1ccc(-c2ccccc2-c2nnn[nH]2)cc1", "melting point": "154 to 156"}, {"smiles": "Oc1ccc2c(c1)OCC(N1CCC(O)(c3ccc(F)cc3)CC1)C2O", "note": "(stereo not drawn)", "melting point": "159 to 160"}, {"smiles": "C=C[C@H]1OC(C)(C)O[C@@H](CC(=O)OCc2ccccc2)[C@H]1NC(=O)OCc1ccccc1", "note": "(relative stereo)", "melting point": "39 to 40.8"}, {"smiles": "O=C(CCC1CCCCC1)NC1N=C(c2ccccc2)c2ccccc2-n2c1noc2=O", "note": "(stereo not drawn)", "melting point": 226}, {"smiles": "CC(Cl)(Cl)c1nc2c(C(F)(F)F)cccc2c(=O)o1", "melting point": 120}, {"smiles": "COc1cc(-c2csc(C)n2)cc2oc(=O)c(C)c(C)c12", "melting point": "149 to 150"}, {"smiles": "CCOC(=O)CCC(=NOCc1ccc(OCc2nc(-c3ccccc3)oc2C)cc1)c1ccc(Oc2ccccc2)cc1", "melting point": "118 to 119"}, {"smiles": "Cc1nc2c(c3c1[nH]c1ccccc13)C(=O)CC(C)C2", "note": "(stereo not drawn)", "melting point": "218 to 219"}, {"smiles": "COC(=O)C1CCC(c2csc(NC(=N)N)n2)C1", "note": "(stereo not drawn)", "melting point": "124 to 126"}, {"smiles": "COC(=O)C(C)(C)CCCOc1cc(C)c(NC(C)=O)cc1C", "melting point": "99 to 100"}, {"smiles": "CC(C)(C)OC(=O)NC(Cc1c[nH]cn1)C(=O)N1CCCC1C(N)=O", "note": "(stereo not drawn)", "melting point": "97 to 101"}, {"smiles": "O=C(Nc1ccc(C(=O)O)cc1)OCc1cn(-c2cc3cc(C(=O)O)c(=O)[nH]c3cc2[N+](=O)[O-])cn1", "melting point": "> 300"}, {"smiles": "NC(=O)CNC(=O)c1cccc(-c2cccc3oc(Cc4cc(F)cc(Cl)c4)cc23)c1", "melting point": "156 to 157"}, {"smiles": "COC1(c2ccc(C#Cc3cc(F)cc(F)c3NC(=O)C(C)(C)C)cc2)CCOCC1", "melting point": "77 to 79"}, {"smiles": "Cc1nc(NC(=O)OCc2ccccc2)c2n1-c1ccc(Cl)cc1C(c1ccccc1F)=NC2", "melting point": "250 to 253"}, {"smiles": "C[C@H](C/C=C/C=C/C(C)(C)O)[C@H]1CC[C@H]2[C@@H](O)CCC[C@]12C", "melting point": "110 to 112"}, {"smiles": "NCCOCn1cnc2c(N)ncnc21", "melting point": "170 to 171"}, {"smiles": "c1ccc(CN(Cc2ccccc2)c2c(-c3ccccc3)sc3ccccc23)cc1", "melting point": "92 to 93"}, {"smiles": "COCOc1c(OC)cc(C(=O)C(=O)O)c2cccc(Cc3ccccc3)c12", "melting point": "75 to 79"}, {"smiles": "Cc1cc(C(=O)NCCc2ccccc2)n(C)n1", "melting point": "90.5 to 91.5"}, {"smiles": "O=C(c1ccc(F)cc1)N1CCC[C@H](c2nc(-c3ccc([N+](=O)[O-])cc3)no2)C1", "melting point": "162 to 164"}]}]}
